Measured values reported in patent publication US8697648B2, “Protein agent for diabetes treatment and β cell imaging” (Georgia State University Research Foundation, Inc., priority 2009, dated 2014).

Tests used:
[1] = R1 and R2 relaxivity with a relaxometer; format: physicochemical; settings: 1.4 T
Procedure: To ensure that the fusion protein is applicable as a MRI contrast agent, the Gd^3+ binding property and R1/R2 relaxivity of the fusion protein were tested using well-known methods.

[2] = cited from earlier work
[3] = system: Diabetic mice (BKS.Cg-Lepr^db/db); assay: Blood glucose lowering in fed diabetic mice (Example 15); format: in vivo
Procedure: The animals were re-feed for 25 minutes 5 hours after drug administration and 35 minutes before the last time point of blood sample collection. The A Blood Glucose (mg/dl) was determined by calculating the difference between the measured blood glucose levels at any given time point and the initial blood glucose levels. The initial blood glucose levels were measured after feeding for 20 min and before the drug administration (time zero). The error bars represent standard deviations of measurements of eight mice.
The developed protein agent was tested to determine whether it had the in vivo capability of lowering blood glucose in diabetic subjects. Diabetic mice (BKS.Cg-Lepr^db/db, The Jackson Laboratory) were used as test subjects. A group of six animals first fasted for 6 hours. After fasting, the animals were fed for 30 minutes. The protein agent was administered after feeding by intraperitoneal injection at a dose of 25 nmole/kg. The animals were fed again for 30 mins, 5 hrs after agent administration. Blood samples were taken at different time points after administration of the agent. Glucose concentration in the blood samples was measured using a commercially available kit.

diabetic mice = assay: Blood glucose and glucose-dependent insulin secretion after co-administration with glucose (Example 16); format: in vivo; settings: 25 nmole/kg agent with 15 mmole/kg glucose i.p.
Procedure: FIG. 12 is a pair of graphs showing the changes in Δ blood glucose (Upper panel) and Δ insulin (bottom panel) in a group of 8 diabetic mice at different time points after injection of 15 mmole/kg of glucose with 25 nmole/kg of different agents.
The effects of the developed agent on blood glucose lowering and stimulating of the glucose-dependent insulin secretion in diabetic mice were also examined. The animals first fasted for 6 hours. The protein agent (25 nmole/kg) and glucose (15 mmole/kg) were co-administrated via intraperitoneal injection with a group of eight diabetic mice. The blood glucose and insulin levels were measured at different time points. As controls, the same dose of glucose was administrated alone and co-administrated with the parental protein calbindin in separate groups of diabetic mice.

Molecule: O=C(O)CN(CCN(CC(=O)O)CC(=O)O)CCN(CC(=O)O)CC(=O)O (Gd complex, metal not drawn) [DTPA, reference compound]
- R1 [1]: 3.8 mM^−1S^−1

Molecule: CC[C@H](C)[C@H](NC(=O)[C@H](Cc1ccccc1)NC(=O)[C@H](CCC(=O)O)NC(=O)[C@H](CCCCN)NC(=O)[C@H](C)NC(=O)[C@H](C)NC(=O)[C@H](CCC(N)=O)NC(=O)CNC(=O)[C@H](CCC(=O)O)NC(=O)[C@H](CC(C)C)NC(=O)[C@H](Cc1ccc(O)cc1)NC(=O)[C@H](CO)NC(=O)[C@H](CO)NC(=O)[C@@H](NC(=O)[C@H](CC(=O)O)NC(=O)[C@H](CO)NC(=O)[C@@H](NC(=O)[C@H](Cc1ccccc1)NC(=O)[C@@H](NC(=O)CNC(=O)[C@H](CCC(=O)O)NC(=O)[C@H](C)NC(=O)[C@@H](N)Cc1c[nH]cn1)[C@@H](C)O)[C@@H](C)O)C(C)C)C(=O)N[C@@H](C)C(=O)N[C@@H](Cc1c[nH]c2ccccc12)C(=O)N[C@@H](CC(C)C)C(=O)N[C@H](C(=O)N[C@@H](CCCCN)C(=O)NCC(=O)N[C@@H](CCCNC(=N)N)C(N)=O)C(C)C [GLP-1 peptide]
- circulation time ([2]; degradation by DPP-4): less than 2 minutes

Molecule: CCCCCCCCCCCCCCCC(=O)N[C@@H](CCC(=O)NCCCC[C@H](NC(=O)[C@H](C)NC(=O)[C@H](C)NC(=O)[C@H](CCC(N)=O)NC(=O)CNC(=O)[C@H](CCC(=O)O)NC(=O)[C@H](CC(C)C)NC(=O)[C@H](Cc1ccc(O)cc1)NC(=O)[C@H](CO)NC(=O)[C@H](CO)NC(=O)[C@@H](NC(=O)[C@H](CC(=O)O)NC(=O)[C@H](CO)NC(=O)[C@@H](NC(=O)[C@H](Cc1ccccc1)NC(=O)[C@@H](NC(=O)CNC(=O)[C@H](CCC(=O)O)NC(=O)[C@H](C)NC(=O)[C@@H](N)Cc1cnc[nH]1)[C@@H](C)O)[C@@H](C)O)C(C)C)C(=O)N[C@@H](CCC(=O)O)C(=O)N[C@@H](Cc1ccccc1)C(=O)N[C@H](C(=O)N[C@@H](C)C(=O)N[C@@H](Cc1c[nH]c2ccccc12)C(=O)N[C@@H](CC(C)C)C(=O)N[C@H](C(=O)N[C@@H](CCCNC(=N)N)C(=O)NCC(=O)N[C@@H](CCCNC(=N)N)C(=O)NCC(=O)O)C(C)C)[C@@H](C)CC)C(=O)O [Liraglutide]
- blood circulation time ([2]; in vivo): more than 10 hr

Molecule: Exendin 4 [reference compound]
- drop of blood glucose levels ([3]; 25 nmole/kg i.p., within 30 minutes): about 189 mg/dl
- blood glucose levels after re-feed ([3]; 6 hours post administration, one hour after re-feed): almost reached the same blood glucose levels before the drug treatments
- time of immediate insulin increase and glucose decrease (diabetic mice): ≤ 30 min

B1: Cal.GLP/Q26D: Q26D variant of the Cal.GLP fusion protein; SEQ ID NO: 18 (protein)
chain: MSTKKSPEELKRIFEKYAAKEGDPDDLSKDELKLLIQAEFPCLLKGPNTLDDLFQELDKNGHAEGTFTSDVSSYLEGQAAKEFIAWLVKGR
- R1 [1]: 20 mM^−1S^−1
